Measured values taken from the METLIN SMRT retention time set (Domingo-Almenara et al. 2019).

Assay: gradient 5% acetonitrile 3 min, to 50% in 2 min, to 85% in 15 min, held 3 min, 100 µL/min
Conditions: column: Zorbax Extend-C18 2.1 x 50 mm; eluents: water / acetonitrile, 0.1% formic acid
In short: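 Using water and acetonitrile that each contained 0.1% formic acid, mixtures of ~100 pure standards were separated at 100 μL/min on a Zorbax Extend-C18 column (2.1 × 50 mm, 1.8 μm). The HPLC fed a quadrupole time-of-flight mass spectrometer working in positive and negative ionization mode, with dead and dwell volumes of 40 μL and 900 μL. Data were acquired over 3 months. Retention time was read from computationally picked adduct peaks after manual inspection of each.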

Row | RP-LC retention time | Compound
1 | 793 s | O=C(NC1CCCc2ccccc21)C1CCN(C(=O)C2Sc3ccccc3NC2=O)CC1 (stereo unspecified)
2 | 659 s | O=C(NC1CCN(Cc2ccccc2)CC1)C1CCCN(c2nnc(-n3cccc3)s2)C1 (stereo unspecified)
3 | 604 s | CCC1CCCCN1CCCNC(=O)C1CCCN(c2ncnc3c2nc2n3CCCCC2)C1 (stereo unspecified)
4 | 834 s | CCOc1ccccc1NC(=O)N1CCc2cn(C)c3cccc(c23)C1
5 | 872 s | O=C(Cn1cccc1-c1nnc(C2CC2)o1)N1CCN(c2ccccc2F)CC1
6 | 778 s | CC1Oc2ccc(S(=O)(=O)N3CCC(C(=O)Nc4ccc(Cl)cc4)CC3)cc2NC1=O (stereo unspecified)
7 | 1070 s | Cc1ccc(C)c(N2CCN(C(=O)c3ccc(C)c(NC(=O)C4=CSCCO4)c3)CC2)c1
8 | 916 s | COc1ccc(OC)c(NC(=O)Nc2cccc(-c3nccnc3N3CCCC3)c2)c1
9 | 738 s | COCc1nncn1C1CCN(S(=O)(=O)c2cccc(Cl)c2)CC1
10 | 852 s | CCN1C(=O)c2cccnc2Sc2cc(NC(=O)c3ccc(F)cc3Cl)ccc21
11 | 859 s | O=C(NC1CC1)C1CCN(c2nc(-c3ccc(Cl)cc3)no2)CC1
12 | 751 s | COC1C(=O)N(c2cccc(F)c2)C12CCN(Cc1cn(C)c3ccccc13)CC2 (stereo unspecified)
13 | 903 s | CCCN(CC1CCOC1)C(=O)Nc1ccccc1OCC (stereo unspecified)
14 | 689 s | COc1cc(NC(=O)CN2C(=O)COc3ccc(C(=O)N(C)C)cc32)cc(OC)c1
15 | 828 s | N#CCCSc1nnc2sc3ccccc3n12
16 | 916 s | O=C(C1CCC1)N1CCc2sc(S(=O)(=O)NCc3ccc(Cl)cc3)cc2C1
17 | 1080 s | CCc1nc(-c2csc(S(=O)(=O)N3CCCC(C(=O)Nc4cccc(Cl)c4C)C3)c2)no1 (stereo unspecified)
18 | 572 s | Cn1ncc2c(N3CCSCC3)nc(C(=O)NCCc3ccccn3)nc21
19 | 758 s | O=S(=O)(Nc1ccc(Cn2cncn2)cc1)c1ccc(F)c(Cl)c1
20 | 756 s | CCOC(=O)c1ccccc1NC(=O)NCC(c1cccnc1)c1c[nH]c2ccccc12 (stereo unspecified)
21 | 972 s | Cc1ccc(CNC(=O)NCc2c(C)nn(-c3ccccc3)c2-n2cccc2)cc1
22 | 731 s | CC(C)N1CCn2c(nc3cc(C(=O)NCc4ccccc4Br)ccc32)C1=O

Row | RP-LC retention time | Compound
23 | 673 s | COc1ccc(-c2ccc(CNc3ncn[nH]3)o2)cc1Cl
24 | 904 s | COc1cc(OC)c(NC(=O)Cn2c(=O)n(-c3ccc(C)cc3)c(=O)c3c2cc(C)n3C)cc1Cl
25 | 1220 s | O=S(=O)(c1ccccc1-c1nc(-c2ccccc2)no1)N1CCN(c2ccccc2)CC1
26 | 782 s | Cc1ccc(N2CC(C(=O)NCc3nn(C)c4ccccc34)CC2=O)cc1 (stereo unspecified)
27 | 684 s | O=c1oc2cc(O)c(O)cc2c2c1CCCC2
28 | 1010 s | CC(C)n1c(=O)sc2cc(S(=O)(=O)N3CCC(C(=O)Nc4cccc(F)c4)CC3)ccc21
29 | 847 s | O=C(CCCCn1c(=O)c2ccccc2n(Cc2ccccc2)c1=O)NCc1cccs1
30 | 746 s | O=C(NCc1ccc(C(F)(F)F)cc1)c1cn2ccccc2n1
31 | 1170 s | O=C(NCCC1=CCCCC1)C1CCCN(c2nccnc2Sc2ccccc2)C1 (stereo unspecified)
32 | 934 s | O=C(Nc1nccnc1C(=O)NC1CCCC1)c1ccccc1
33 | 844 s | Cc1ccsc1C(=O)N1CCC2(CC1)NC(=O)N(Cc1ccc(Cl)cc1)C2=O
34 | 613 s | CCCc1cc(N2CCN(C(=O)c3cccs3)CC2)nc2nnc(C)n12
35 | 991 s | CC(C)OCCCN1C(=O)CN(C2CCCCC2)C(=O)C1c1cccs1 (stereo unspecified)
36 | 1060 s | CCc1ccc(-n2ncc3c(=O)n(Cc4nc(-c5ccc(OC)c(OC)c5)no4)cnc32)cc1
37 | 585 s | CCC(=O)Nc1cc(C(=O)NCc2ccc(N3CCOCC3)cc2)c2ccc(C)nc2c1
38 | 644 s | COc1ccc(C(O)CN2CCN(c3ccc(C)cc3)CC2)cc1OC (stereo unspecified)
39 | 976 s | CCOc1ccccc1NC(=O)N1CCC(n2c(C(F)(F)F)nc3cccnc32)CC1
40 | 871 s | COc1ccc(/C=C/c2nc(Cn3c(C)nc4ccccc4c3=O)no2)cc1
41 | 665 s | CCOC(=O)c1nc(N2CCN(C(=O)c3ccco3)CC2)c2ccccc2n1
42 | 832 s | O=C(Nc1ccc2c(c1)C(=O)N1CCCCC1CCO2)Nc1ccccc1C(F)(F)F (stereo unspecified)
43 | 782 s | O=C(O)c1cccc2c1CCN2C(=O)Nc1ccc(F)cc1
44 | 947 s | Cc1ccc(NC(=O)N(C)CCc2noc(COc3ccccc3)n2)cc1C

Row | RP-LC retention time | Compound
45 | 639 s | CCOc1ccc(NC(=O)N2CCC(CN3CCCC(C)C3)CC2)cc1 (stereo unspecified)
46 | 1210 s | Cc1ccc(NS(=O)(=O)c2cc(-c3nc(C(C)C)cs3)cs2)c(C)c1
47 | 1150 s | CCOC(=O)c1ccc(NC(=O)N2CCc3cn(CC)c4cccc(c34)C2)cc1
48 | 586 s | CCn1c(=O)c(C(=O)NCCCc2ccccc2)nc2cccnc21
49 | 805 s | COc1cc(=O)c(C(=O)Nc2cccc(SC)c2)nn1-c1cccc(F)c1
50 | 1140 s | COc1cccc(-n2cc(C(=O)OCC(=O)OC(C)(C)C)c3ccccc3c2=O)c1
51 | 1100 s | COC(=O)c1ccc2c(=O)n(-c3ccc(C)c(F)c3)c(N3CCSCC3)nc2c1
52 | 747 s | CCN1CCN(c2ccc(NC(=O)c3cc(Cl)ccc3F)cn2)C1=O
53 | 751 s | Cn1cc(S(=O)(=O)N2CCC(C(=O)Nc3cccc(C#N)c3)CC2)cc1C(=O)N1CCCC1
54 | 640 s | Cc1nc(-c2ccc(S(=O)(=O)Nc3cccnc3)cc2)co1
55 | 569 s | O=C(Nc1nccnc1C(=O)NCCN1CCOCC1)c1ccccc1
56 | 832 s | Cc1ccc(NC(=O)C2CCCN2S(=O)(=O)c2cc3c(cc2Cl)NC(=O)CO3)cc1C (stereo unspecified)
57 | 755 s | COC(=O)c1ncn2c1C(=O)N(Cc1cccc(Cl)c1)C(C)(C(=O)NCc1ccccc1)C2 (stereo unspecified)
58 | 705 s | Cc1ccc(NC(=O)Cn2c(C(C)C)nc3c(c2=O)CCN(Cc2ccccc2)C3)c(C)c1
59 | 634 s | Cc1ccc(NC(=O)N2CCN(c3cnn4c(C)nnc4c3)CC2)c(C)c1
60 | 601 s | Cn1c(CNC(=O)CCc2cc3ccccc3[nH]c2=O)nc2ccccc21
61 | 857 s | CCOC(=O)Cc1ccc(NC(=O)NC(C)C(=O)N2CCc3ccccc32)cc1 (stereo unspecified)
62 | 562 s | CN(C)CCCNC(=O)C1CCCN(c2cnc3nccnc3c2)C1 (stereo unspecified)
63 | 862 s | Cc1ccc(-c2noc(-c3ccccc3S(=O)(=O)N3CCN(c4ccccn4)CC3)n2)cc1
64 | 765 s | CCS(=O)(=O)c1ccc(-c2ccc(NC(=O)c3ccc(Br)o3)cc2)nn1
65 | 1150 s | COc1ccc(C)cc1NC(=O)Cn1nc2cc(C)nc(Nc3ccc(C)cc3)n2c1=O

Row | Compound | RP-LC retention time
66 | CCCn1cc(C(=O)NCc2ccncc2)c2cccnc21 | 572 s
